The results in this text go back to patent publication USRE48842E1, “Pyrimido-pyrrolo-oxazine-dione compound inhibitors of the cystic fibrosis transmembrane conductance regulator protein and uses therefor” (The Regents of the University of California, priority 2011, dated 2021).

Molecules are shown by their SMILES.

T1 sequence (P13569 whole entry): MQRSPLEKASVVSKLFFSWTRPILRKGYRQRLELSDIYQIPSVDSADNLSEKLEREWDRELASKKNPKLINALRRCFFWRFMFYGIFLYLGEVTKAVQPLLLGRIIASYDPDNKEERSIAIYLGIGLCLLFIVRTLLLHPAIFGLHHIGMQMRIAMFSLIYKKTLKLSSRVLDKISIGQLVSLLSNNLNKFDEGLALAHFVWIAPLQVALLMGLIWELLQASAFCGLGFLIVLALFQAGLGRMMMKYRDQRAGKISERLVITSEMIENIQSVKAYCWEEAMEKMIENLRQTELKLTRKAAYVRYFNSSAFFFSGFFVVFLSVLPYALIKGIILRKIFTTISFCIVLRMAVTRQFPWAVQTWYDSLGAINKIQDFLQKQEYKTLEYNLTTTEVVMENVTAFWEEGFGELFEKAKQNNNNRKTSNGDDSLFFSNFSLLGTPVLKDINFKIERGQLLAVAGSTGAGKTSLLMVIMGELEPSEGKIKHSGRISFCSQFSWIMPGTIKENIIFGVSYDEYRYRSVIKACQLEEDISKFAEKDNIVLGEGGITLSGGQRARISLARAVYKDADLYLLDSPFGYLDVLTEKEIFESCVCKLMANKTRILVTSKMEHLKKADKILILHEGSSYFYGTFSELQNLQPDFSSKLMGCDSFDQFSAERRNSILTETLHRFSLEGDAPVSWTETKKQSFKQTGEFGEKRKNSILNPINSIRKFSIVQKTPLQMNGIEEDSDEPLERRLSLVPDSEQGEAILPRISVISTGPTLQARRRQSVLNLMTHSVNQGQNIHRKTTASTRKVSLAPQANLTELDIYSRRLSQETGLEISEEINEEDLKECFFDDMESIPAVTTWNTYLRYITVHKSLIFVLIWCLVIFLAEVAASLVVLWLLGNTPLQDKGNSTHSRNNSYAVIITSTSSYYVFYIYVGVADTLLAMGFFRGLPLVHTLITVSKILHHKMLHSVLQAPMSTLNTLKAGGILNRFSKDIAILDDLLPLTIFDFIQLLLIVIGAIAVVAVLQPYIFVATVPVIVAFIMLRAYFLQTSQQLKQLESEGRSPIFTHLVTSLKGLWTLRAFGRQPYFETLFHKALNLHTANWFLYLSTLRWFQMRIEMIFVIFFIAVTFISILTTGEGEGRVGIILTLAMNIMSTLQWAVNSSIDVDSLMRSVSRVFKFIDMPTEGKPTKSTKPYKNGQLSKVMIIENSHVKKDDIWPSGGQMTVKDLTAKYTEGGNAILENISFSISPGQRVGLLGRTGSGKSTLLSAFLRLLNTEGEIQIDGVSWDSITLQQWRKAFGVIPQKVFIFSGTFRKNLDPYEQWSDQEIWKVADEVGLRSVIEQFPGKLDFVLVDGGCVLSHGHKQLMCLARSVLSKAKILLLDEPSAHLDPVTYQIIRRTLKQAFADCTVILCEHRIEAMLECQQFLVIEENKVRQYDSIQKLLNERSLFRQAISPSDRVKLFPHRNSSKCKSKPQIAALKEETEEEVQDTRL

One assay has as its target T1, human wildtype CFTR (Homo sapiens, UniProt P13569). The experiment in a line: Fluorescence plate reader assay of CFTR inhibition (iodide influx).
Details: not given
Type of assay: cell-based. Also on record: expressed in transfected cells; host or cells: Fischer rat thyroid (FRT) cells. The protocol:
Cell Culture and Plate Reader Assay of CFTR Inhibition—Fischer rat thyroid (FRT) cells co-expressing human wild type CFTR and the halide indicator YFP-H148Q were cultured in 96-well black-walled microplates (Corning Costar) at a density of 20,000 cells per well in Coon's modified F12 medium containing 10% fetal bovine serum, 2 mM L-glutamine, 100 U/mL penicillin and 100 μg/mL streptomycin. CFTR chloride conductance was assayed at 48 h after plating on a FluoStar fluorescence plate reader (BMG Lab Technologies) as described (see, e.g., Ma et al., J Clin Invest. 2002, supra). Each well was washed 3 times with PBS, leaving 60 μL PBS. Test compounds were added and incubated with the cells for 45 min. Then, 5 μL of a CFTR-activating cocktail (10 μM forskolin, 100 μM IBMX, 20 μM apigenin in PBS) was added. After 15 min, each well was assayed for iodide influx by recording fluorescence continuously (200 ms per point) for 2 s (baseline) and then for 10 s after rapid addition of 160 μL of isosmolar PBS in which 137 mM chloride was replaced by iodide. The initial rate of iodide influx was computed from fluorescence data by non-linear regression.
Initial testing of the compounds for the capability to inhibit CFTR was performed using a plate-reader assay in which iodide influx was measured in FRT cells co-expressing human wild type CFTR and the iodide-sensing yellow fluorescent protein YFP-H148Q/1152L. […] Table B below provides IC50 values for PPQ and BPO compounds.
The relative IC50 values obtained from the plate reader assay are useful for comparisons. Absolute IC50 values obtained from the plate-reader assay are approximate, generally underestimating compound potency because of assay non-linearities, pH-dependent YFP fluorescence, the use of iodide instead of chloride, and compound dilution at the start of the assay (see, e.g., Galietta et al., Am. J. Physiol. Cell Physiol. 281:C1734-42 (2001)).
On to `Cc1ccc(C2c3c4c(c(-c5ccccc5)n3-c3ccccc3N2C)c(=O)n(C)c(=O)n4C)o1` (centres unmarked) [PPQ-5, 5,7,9-Trimethyl-6-(5-methylfuran-2-yl)-11-phenyl-5,6-dihydropyrimido[4′,5′-3,4]pyrrolo[1,2-a]quinoxaline-8,10-(7H,9H)-dione], for which the “CFTR inhibition activity (in words)” value is recorded as “weakly active”.

For `CCOC(=O)c1ccc2c(c1)-n1c(-c3ccccc3)c3c(=O)n(C)c(=O)n(C)c3c1C(c1ccc(Br)o1)O2` (racemic) [BPO-25, Ethyl 6-(5-Bromofuran-2-yl)-7,9-dimethyl-8,10-dioxo-11-phenyl-7,8,9,10-tetrahydro-6H-benzo[b]pyrimido[4′,5′:3,4]pyrrolo[1,2-d][1,4]oxazine-2-carboxylate], the “CFTR inhibition activity (in words)” value was “excellent CFTR inhibition activity”.

Staying with this assay, now noted: Determined by micro-plate reader assay; FRT cells co-expressing human wild type CFTR and YFP-H148Q.
`Cc1ccc(C2Nc3ccccc3-n3c(-c4ccccc4)c4c(=O)n(C)c(=O)n(C)c4c32)s1` (centres unmarked) [PPQ-7, 7,9-Dimethyl-6-(5-methylthiophene-2-yl)-11-phenyl-5,6-dihydropyrimido[4′,5′-3,4]pyrrolo[1,2-a]quinoxaline-8,10-(7H,9H)-dione]: half-maximal inhibition (IC50) was put at 1700 nM.

On to `Cn1c(=O)c2c(-c3ccccc3)n3c(c2n(C)c1=O)C(c1ccc(-c2ccccc2)o1)Nc1ccccc1-3` (centres unmarked) [PPQ-13, 7,9-Dimethyl-11-phenyl-6-(5-phenylfuran-2-yl)-5,6-dihydropyrimido[4′,5′-3,4]pyrrolo[1,2-a]quinoxaline-8,10-(7H,9H)-dione], for which the “IC50 (μm)^A” value was “inactive”.

The molecule `Cn1c(=O)c2c(-c3ccccc3)n3c(c2n(C)c1=O)C(c1ccc(I)o1)Nc1ccccc1-3` (centres unmarked) [PPQ-11, 7,9-Dimethyl-6-(5-iodofuran-2-yl)-11-phenyl-5,6-dihydropyrimido[4′,5′-3,4]pyrrolo[1,2-a]quinoxaline-8,10-(7H,9H)-dione] registered an IC50 of 170 nM.

Consider `Cc1cc(C2Nc3ccccc3-n3c(-c4ccccc4)c4c(=O)n(C)c(=O)n(C)c4c32)oc1C` (centres unmarked) [PPQ-8, 7,9-Dimethyl-6-(4,5-dimethylfuran-2-yl)-11-phenyl-5,6-dihydropyrimido[4′,5′-3,4]pyrrolo[1,2-a]quinoxaline-8,10-(7H,9H)-dione], for which the IC50 came out at 1700 nM.

Molecule `CCc1ccc(C2Nc3ccccc3-n3c(-c4ccccc4)c4c(=O)n(C)c(=O)n(C)c4c32)o1` (centres unmarked) [PPQ-6, 7,9-Dimethyl-6-(5-ethylfuran-2-yl)-11-phenyl-5,6-dihydropyrimido[4′,5′-3,4]pyrrolo[1,2-a]quinoxaline-8,10-(7H,9H)-dione] registered an IC50 of 300 nM.

Consider `Cc1cccc(-c2c3c(=O)n(C)c(=O)n(C)c3c3n2-c2ccccc2OC3c2ccc(Cl)o2)c1` (centres unmarked) [BPO-19, 6-(5-Chlorofuran-2-yl)-7,9-dimethyl-11-(m-tolyl)-6Hbenzo[b]pyrimido[4′,5′-3,4]pyrrolo[1,2-d]oxazine-8,10-(7H,9H)-dione], for which the IC50 is 370 nM.

As to `Cc1ccc(C2c3c4c(c(-c5ccccc5)n3-c3ccccc3N2N=O)c(=O)n(C)c(=O)n4C)o1` (centres unmarked) [PPQ-4, 7,9-Dimethyl-6-(5-methylfuran-2-yl)-5-nitroso-11-phenyl-5,6. -dihydropyrimido[4′,5′-3,4]pyrrolo[1,2-a]quinoxaline-8,10-(7H,9H)-dione], the IC50 was 2000 nM.

Molecule `Cn1c(=O)c2c(-c3ccccc3)n3c(c2n(C)c1=O)C(c1ccc(Cl)o1)Nc1ccccc1-3` (centres unmarked) [PPQ-9, 6(5-Chlorofuran-2-yl)-7,9-dimethyl-11-phenyl-5,6-dihydropyrimido[4′,5′-3,4]pyrrolo[1,2-a]quinoxaline-8,10-(7H,9H)-dione] displayed an IC50 of 150 nM.

For the molecule `Cc1ccc(C2c3c4c(c(-c5ccccc5)n3-c3ccccc3N2C)c(=O)n(C)c(=O)n4C)o1` (centres unmarked) [PPQ-5, 5,7,9-Trimethyl-6-(5-methylfuran-2-yl)-11-phenyl-5,6-dihydropyrimido[4′,5′-3,4]pyrrolo[1,2-a]quinoxaline-8,10-(7H,9H)-dione], half-maximal inhibition (IC50) required 1000 nM.

For the molecule `CCOC(=O)c1ccc2c(c1)-n1c(-c3ccccc3)c3c(=O)n(C)c(=O)n(C)c3c1C(c1ccc(C)o1)O2` (centres unmarked) [BPO-26, Ethyl 7,9-Dimethyl-8,10-dioxo-6-(5-methylfuran-2-yl)-11-phenyl-7,8,9,10-tetrahydro-6H-benzo[b]pyrimido[4′,5′:3,4]pyrrolo[1,2-d][1,4]oxazine-2-carboxylate], half-maximal inhibition (IC50) required 80 nM.

For the molecule `Cc1ccc(C2c3c4c(c(-c5ccccc5)n3-c3ccccc3N2S(C)(=O)=O)c(=O)n(C)c(=O)n4C)o1` (centres unmarked) [PPQ-1, 7,9-Dimethyl-6-(5-methylfuran-2-yl)-5-(methylsulfonyl)-11-phenyl-5,6-dihydropyrimido[4′,5′-3,4]pyrrolo[1,2-a]quinoxaline-8,10-(7H,9H)-dione], the “IC50 (μm)^A” value is “inactive”.

Consider `CC(=O)N1c2ccccc2-n2c(-c3ccccc3)c3c(=O)n(C)c(=O)n(C)c3c2C1c1ccc(C)o1` (centres unmarked) [PPQ-3, 5-Acetyl-7,9-dimethyl-6-(5-methylfuran-2-yl)-11-phenyl-5,6. -dihydropyrimido[4′,5′-3,4]pyrrolo[1,2-a]quinoxaline-8,10-(7H,9H)-dione], for which the “IC50 (μm)^A” value was “inactive”.

With `Cn1c(=O)c2c(-c3ccccc3)n3c(c2n(C)c1=O)C(c1cc2ccccc2o1)Nc1ccccc1-3` (centres unmarked) [PPQ-15, 6-(Benzofuran-2-yl)-7,9-dimethyl-11-phenyl-5,6-dihydropyrimido[4′,5′-3,4]pyrrolo[1,2-a]quinoxaline-8,10-(7H,9H)-dione], the “IC50 (μm)^A” value was “inactive”.

As to `CCOC(=O)c1ccc2c(c1)-n1c(-c3ccccc3)c3c(=O)n(C)c(=O)n(C)c3c1C(c1ccc(Br)o1)O2` (racemic) [BPO-25, Ethyl 6-(5-Bromofuran-2-yl)-7,9-dimethyl-8,10-dioxo-11-phenyl-7,8,9,10-tetrahydro-6H-benzo[b]pyrimido[4′,5′:3,4]pyrrolo[1,2-d][1,4]oxazine-2-carboxylate], the concentration for half-maximal inhibition (IC50) came to 50 nM.

In the case of `Cn1c(=O)c2c(-c3ccccc3)n3c(c2n(C)c1=O)C(c1ccc(I)o1)Oc1ccccc1-3` (centres unmarked) [BPO-17, 7,9-Dimethyl-6-(5-iodofuran-2-yl)-11-phenyl-6Hbenzo[b]pyrimido[4′,5′-3,4]pyrrolo[1,2-d]oxazine-8,10-(7H,9H)-dione], half-maximal inhibition (IC50) was put at 500 nM.

`Cn1c(=O)c2c(-c3ccccc3)n3c(c2n(C)c1=O)C(c1ccc(CO)o1)Nc1ccccc1-3` (centres unmarked) [PPQ-14, 7,9-Dimethyl-11-phenyl-6-(5-hydroxymethylfuran-2-yl)-5,6-dihydropyrimido[4′,5′-3,4]pyrrolo[1,2-a]quinoxaline-8,10-(7H,9H)-dione]: the “IC50 (μm)^A” value was “inactive”.

`Cn1c(=O)c2c(-c3ccccc3)n3c(c2n(C)c1=O)C(c1ccc(C(F)(F)F)o1)Nc1ccccc1-3` (centres unmarked) [PPQ-12, 7,9-Dimethyl-11-phenyl-6-(5-trifluoromethylfuran-2-yl)-5,6-dihydropyrimido[4′,5′-3,4]pyrrolo[1,2-a]quinoxaline-8,10-(7H,9H)-dione] displayed an IC50 of 350 nM.

For the molecule `Cc1ccc(C2c3c4c(c(-c5ccccc5)n3-c3ccccc3N2C(=O)CCl)c(=O)n(C)c(=O)n4C)o1` (centres unmarked) [PPQ-2, 5-(2-Chloroacetyl)-7,9-dimethyl-6-(5-methylfuran-2-yl)-11-phenyl-5,6-dihydropyrimido[4′,5′-3,4]pyrrolo[1,2-a]quinoxaline-8,10-(7H,9H)-dione], the “IC50 (μm)^A” value was “inactive”.

As to `Cc1cccc(-c2c3c(=O)n(C)c(=O)n(C)c3c3n2-c2ccccc2OC3c2ccc(C)o2)c1` (centres unmarked) [BPO-20, 7,9-Dimethyl-6-(5-methylfuran-2-yl)-11-(m-tolyl)-6H-benzo[b]pyrimido[4′,5′-3,4]pyrrolo[1,2-d]oxazine-8,10-(7H,9H)-dione], the midpoint of inhibition, the IC50, lay at 600 nM.

Molecule `Cc1ccc(C2Oc3cc([N+](=O)[O-])c(Cl)cc3-n3c(-c4ccccc4)c4c(=O)n(C)c(=O)n(C)c4c32)o1` (centres unmarked) [BPO-24, 2-Chloro-7,9-Dimethyl-6-(5-methylfuran-2-yl)-3-nitro-11-phenyl-6H-benzo[b]pyrimido[4′,5′-3,4]pyrrolo[1,2-d]oxazine-8,10-(7H,9H)-dione] returned a half-maximal inhibitory concentration (IC50) of 170 nM.

Take `Cc1ccc(C2Oc3ccccc3-n3c(-c4ccccc4)c4c(=O)n(C)c(=O)n(C)c4c32)o1` (centres unmarked) [BPO-18, 7,9-Dimethyl-6-(5-methylfuran-2-yl)-11-phenyl-6H-benzo[b]pyrimido[4′,5′-3,4]pyrrolo[1,2-d]oxazine-8,10-(7H,9H)-dione]: the IC50 was 150 nM.

In turn, `Cn1c(=O)c2c(-c3ccccc3)n3c(c2n(C)c1=O)C(c1ccc(Br)o1)Nc1ccc([N+](=O)[O-])cc1-3` (centres unmarked) [PPQ-23, 6-(5-Bromofuran-2-yl)-7,9-dimethyl-2-nitro-11-phenyl-5,6-dihydropyrimido[4′,5′-3,4]pyrrolo[1,2-a]quinoxaline-8,10-(7H,9H)-dione] yielded a half-maximal inhibitory concentration (IC50) of 170 nM.

The target of a further assay is T1, human wildtype CFTR. The assay can be described thus: Short-circuit current analysis of CFTR inhibition in CFTR-expressing FRT cells. Also on record: expressed in transfected cells; host or cells: Fischer rat thyroid (FRT) epithelial cells on Snapwell inserts. The note with it: Determined by short-circuit current assay; read-out: IC50 (μM)^B. Type of assay: cell-based. The protocol: Short-Circuit Current—Snapwell inserts containing CFTR-expressing FRT cells were mounted in an Ussing chamber. The hemichambers contained 5 mL of buffer containing 75 mM NaCl and 75 mM Na gluconate (apical) and 150 mM NaCl (basolateral) (pH 7.3), and the basolateral membrane was permeabilized with 250 μg/mL amphotericin B, as described (see, e.g., Sonawane et al., FASEB J 2006, supra). Short-circuit current was recorded continuously using a DVC-1000 voltage clamp (World Precision Instruments) using Ag/AgCl electrodes and 3 M KCl agar bridges.
Current was measured in CFTR-expressing FRT cells in which the basolateral membrane was permeabilized and in the presence of a transepithelial chloride concentration gradient, so that current is a quantitative linear measure of CFTR function. CFTR was activated by forskolin, followed by serial additions of increasing concentrations of test compounds.
CFTR inhibition potency was measured by short-circuit current analysis in FRT epithelial cells expressing human CFTR in presence of a transepithelial chloride gradient and in which the basolateral membrane was permeabilized with amphotericin B. Under these conditions short-circuit current is proportional to CFTR chloride conductance.
Turning to `Cn1c(=O)c2c(-c3ccccc3)n3c(c2n(C)c1=O)C(c1ccc(I)o1)Nc1ccccc1-3` (centres unmarked) [PPQ-11, 7,9-Dimethyl-6-(5-iodofuran-2-yl)-11-phenyl-5,6-dihydropyrimido[4′,5′-3,4]pyrrolo[1,2-a]quinoxaline-8,10-(7H,9H)-dione], the concentration for half-maximal inhibition (IC50) came to 0.1 µM.

Turning to `CCOC(=O)c1ccc2c(c1)-n1c(-c3ccccc3)c3c(=O)n(C)c(=O)n(C)c3c1C(c1ccc(Br)o1)O2` (racemic) [BPO-25, Ethyl 6-(5-Bromofuran-2-yl)-7,9-dimethyl-8,10-dioxo-11-phenyl-7,8,9,10-tetrahydro-6H-benzo[b]pyrimido[4′,5′:3,4]pyrrolo[1,2-d][1,4]oxazine-2-carboxylate], the 50% inhibitory concentration (IC50) is 0.025 µM.

A word on the IC50: it is the point on the concentration scale where inhibition reaches its midpoint.
